Reference: patent US10857105B2, “Compounds and compositions for intracellular delivery of therapeutic agents” (ModernaTX, Inc., priority 2017, dated 2020)

Assays:
[1] = Particle size and polydispersity index of nanoparticle compositions (Zetasizer Nano ZS); format: physicochemical
Experimental: A Zetasizer Nano ZS (Malvern Instruments Ltd, Malvern, Worcestershire, UK) can be used to determine the particle size, the polydispersity index (PDI) and the zeta potential of the nanoparticle compositions in 1×PBS in determining particle size and 15 mM PBS in determining zeta potential.
(§1) Initial studies were performed to compare the delivery efficiency of nanoparticle compositions including various compounds according to Formula (I), (IA), (IB), (II), (IIa), (IIb), (IIc), (IId), (IIe), (IIf), (IIg), or (III). The cationic lipid MC3 is a current standard in the art. Accordingly, the standard MC3 formulation including about 50 mol % MC3, about 10 mol % DSPC, about 38.5 mol % cholesterol, and about 1.5 mol % PEG-DMG was used as a basis for this study. Nanoparticle compositions including DSPC as a phospholipid, cholesterol as a structural lipid, PEG-DMG as a PEG lipid, an RNA, and a compound according to Formula (I), (IA), (IB), (II), (IIa), (IIb), (IIc), (IId), (IIe), (IIf), (IIg), or (III) selected from Compounds 1-159, 168-170, and 173-175 were prepared according to or via methods similar to those described in Examples 1 and 2. The ratios of the lipids were 50:10:38.5:1.5 mol % for the lipid according to Formula (I), (IA), (IB), (II), (IIa), (IIb), (IIc), (IId), (IIe), (IIf), (IIg), or (III):DSPC:cholesterol:PEG-DMG. The RNA used was an mRNA encoding luciferase (Luc) or hEPO, wherein each uridine was replaced N1-methyl pseudouridine. Tables 1A-1E summarize the content and characteristics of the formulations.

modified luciferase = assay: Luciferase expression in liver, lung, spleen and femur 6 hours after intravenous administration to mice; format: in vivo; conditions: 6 hours after intravenous 0.5 mpk, mice
Experimental: The efficacy of the nanoparticle compositions presented in Table 1A was further evaluated by measuring the expression of modified luciferase in the liver, lung, spleen, and femur upon administration of a given composition. Formulations were administered intravenously to mice (n=3) at a dosage of 0.5 mpk and bioluminescence measured after 6 hours. The standard MC3 formulation and a PBS control were also tested. […] Flux in the liver was lowest for compositions including Compounds 58, 59, 137, and 141. Flux in the spleen was highest for compositions including Compounds 4, 7, 33, 34, 48, 53, 108, 129, 130, and 148, and lowest for compositions including Compounds 9, 59, 124, and 141.

[2] = Encapsulation efficiency of RNA in nanoparticle compositions (RIBOGREEN assay); format: physicochemical; conditions: Table 1A; lipid:DSPC:cholesterol:PEG-DMG 50:10:38.5:1.5 mol %
Experimental: For nanoparticle compositions including an RNA, a QUANT-IT™ RIBOGREEN® RNA assay (Invitrogen Corporation Carlsbad, Calif.) can be used to evaluate the encapsulation of an RNA by the nanoparticle composition. The samples are diluted to a concentration of approximately 5 μg/mL, in a TE buffer solution (10 mM Tris-HCl, 1 mM EDTA, pH 7.5). 50 μL of the diluted samples are transferred to a polystyrene 96 well plate and either 50 μL of TE buffer or 50 μL of a 2% Triton X-100 solution is added to the wells. The plate is incubated at a temperature of 37° C. for 15 minutes. The RIBOGREEN® reagent is diluted 1:100 in TE buffer, and 100 μL of this solution is added to each well. The fluorescence intensity can be measured using a fluorescence plate reader (Wallac Victor 1420 Multilabel Counter; Perkin Elmer, Waltham, Mass.) at an excitation wavelength of, for example, about 480 nm and an emission wavelength of, for example, about 520 nm. The fluorescence values of the reagent blank are subtracted from that of each of the samples and the percentage of free RNA is determined by dividing the fluorescence intensity of the intact sample (without addition of Triton X-100) by the fluorescence value of the disrupted sample (caused by the addition of Triton X-100).
as §1

[3] = Table 1A, lipid:DSPC:cholesterol:PEG-DMG 50:10:38.5:1.5 mol %
[4] = Table 1C, compositions for subcutaneous administration

| SMILES | Size ([1]; Table 1D, compositions for subcutaneous administration, # formulated with hEPO mRNA) [nm] | EE [2] [%] | Size [1, 3] [nm] | Size [1, 4] [nm] | Total Flux, Liver (modified luciferase) | Total Flux, Lung (modified luciferase) | Total Flux, Spleen (modified luciferase) |
| --- | --- | --- | --- | --- | --- | --- | --- |
| CCCCCCCCC(CCCCCCCC)OC(=O)CCCCCCCN(CCO)CCCC(=O)OCCCC [Compound 51, heptadecan-9-yl 8-((4-butoxy-4-oxobutyl)(2-hydroxyethyl)amino) octanoate] | – | 89.83 | – | – | 2.49E+07 | 3.67E+05 | 2.80E+07 |
| CCCCCCCCCOC(=O)CCCN(C)CCCCCCCC(=O)OC(CCCCCCCC)CCCCCCCC [Compound 126, Heptadecan-9-yl 8-(methyl(4-(nonyloxy)-4-oxobutyl)amino)octanoate] | – | – | 77.4 | – | 7.41E+08 | 2.68E+06 | 1.87E+07 |
| CCCCCCCCC(CCCCCCCC)OC(=O)CCCCCCCN(C)CCCCCCCC(=O)OC(CCCCCCCC)CCCCCCCC [Compound 124, Di(heptadecan-9-yl) 8,8′-(methylazanediyl)dioctanoate] | – | – | 61.3 | – | 8.46E+06 | 5.67E+04 | 8.06E+04 |
| CCCCCCCCC(CCCCCCCC)OC(=O)CCCCCCCN(CCO)CCCC(=O)OCC1CC1CCCCCC (stereo not shown) [Compound 55, heptadecan-9-yl 8-((4-((2-hexylcyclopropyl)methoxy)-4-oxobutyl)(2-hydroxyethyl)amino)octanoate] | – | – | 91.6 | – | 1.92E+09 | 7.02E+06 | 2.63E+07 |
| CCCCCCCCCOC(=O)CCCCCCCN(CCCCCCCC(=O)OC(CCCCCCCC)CCCCCCCC)CCCn1cnc2c(N)ncnc21 [Compound 116, Heptadecan-9-yl 8-((3-(6-amino-9H-purin-9-yl)propyl)(8-(nonyloxy)-8-oxooctyl)amino)octanoate] | – | – | 63.3 | – | – | – | – |
| CCCCCCCCCOC(=O)CCCCCCCN(CCO)CCCCCCCC(=O)Oc1ccc(CCCCC)cc1 [Compound 119, Nonyl 8-((2-hydroxyethyl)(8-oxo-8-(4-pentylphenoxy)octyl)amino)octanoate] | – | – | 60.8 | – | – | – | – |
| CCCCCCCCCOC(=O)CCCCCCCN(CCCCCCCC(=O)OC(CCCCCCCC)CCCCCCCC)CCCn1ccc(N)nc1=O [Compound 115, Heptadecan-9-yl 8-((3-(4-amino-2-oxopyrimidin-1(2H)-yl)propyl)(8-(nonyloxy)-8-oxooctyl)amino)octanoate] | – | – | 64.5 | – | – | – | – |
| CCCCCCCCCOC(=O)CCCCCCCN(CCO)CCCCCCCC(=O)Oc1ccc(CCCCC)c(CCCCC)c1 [Compound 118, 3,4-Dipentylphenyl 8-((2-hydroxyethyl)(8-(nonyloxy)-8-oxooctyl)amino)octanoate] | – | – | 72.1 | – | 1.72E+08 | 1.98E+06 | 2.49E+07 |
| CCCCCCCCC(CCCCCCCC)OC(=O)CCCCCCCN(CCO)CCCC(=O)OC1CCC(CCCCC)CC1 (stereo not shown) [Compound 67, Heptadecan-9-yl 8-((2-hydroxyethyl)(4-oxo-4-((4-pentylcyclohexyl)oxy)butyl)amino)octanoate] | – | – | 77 | – | 3.60E+09 | 1.68E+07 | 2.55E+07 |

Now from value to molecule, other results behind:

| Size ([1]; Table 1D, compositions for subcutaneous administration, # formulated with hEPO mRNA) [nm] | EE [2] [%] | Size [1, 3] [nm] | Size [1, 4] [nm] | SMILES | Total Flux, Liver (modified luciferase) | Total Flux, Lung (modified luciferase) | Total Flux, Spleen (modified luciferase) |
| --- | --- | --- | --- | --- | --- | --- | --- |
| 81.4 | – | – | – | CCCCCCCCCOC(=O)CCCCCCCN(CCCCCCCC(=O)OC(CCCCCCCC)CCCCCCCC)CCCNC(=N)N [Compound 207, Heptadecan-9-yl 8-((3-guanidinopropyl)(8-(nonyloxy)-8-oxooctyl)amino)octanoate] | – | – | – |
| – | 81.45 | – | – | CCCCCCCCCOC(=O)CCCCCCCN(CCO)CCCCCCCC(=O)OC(C)CCCCCCCC (stereo not shown) [Compound 36, decan-2-yl 8-((2-hydroxyethyl)(8-(nonyloxy)-8-oxooctyl)amino) octanoate] | 2.65E+07 | 5.82E+05 | 6.14E+07 |
| – | – | 63.9 | – | CCCCCCCCC(CCCCCCCC)OC(=O)CCCCCCCN(CCO)CCCCCCCC(=O)OC(CCCCCCCC)C1CC1 (stereo not shown) [Compound 65, 1-Cyclopropylnonyl 8-((8-(heptadecan-9-yloxy)-8-oxooctyl)(2-hydroxyethyl)amino)octanoate] | 9.56E+09 | 3.79E+07 | 6.57E+07 |
| – | 90.82 | – | – | CCCCCCCCCOC(=O)CCCCCCCN(CCO)CCCCCCCC(=O)OC(CC)CCCCCCCC (stereo not shown) [Compound 35, nonyl 8-((2-hydroxyethyl)(8-oxo-8-(undecan-3-yloxy)octyl)amino) octanoate] | 1.63E+08 | 2.06E+06 | 1.23E+08 |
| – | – | 92.1 | 88.6 | CCCCCCCCC(CC)OC(=O)CCCCCN(CCO)CCCCCCCC(=O)OC(CCCCCCCC)CCCCCCCC (stereo not shown) [Compound 75, Heptadecan-9-yl 8-((2-hydroxyethyl)(6-oxo-6-(undecan-3-yloxy)hexyl)amino)octanoate] | 1.45E+09 | 3.92E+06 | 5.66E+06 |
| – | – | 65.6 | – | CCCCCCCCC(CCC)OC(=O)CCCN(CCO)CCCCCCCC(=O)OC(CCCCCCCC)CCCCCCCC (stereo not shown) [Compound 74, Heptadecan-9-yl 8-((4-(dodecan-4-yloxy)-4-oxobutyl)(2-hydroxyethyl)amino)octanoate] | 1.99E+09 | 6.93E+06 | 2.26E+07 |
| – | – | 84.4 | – | CCCCCCCCCOC(=O)CCCCCCCN(CCCCCCCC(=O)OC(CCCCCCCC)CCCCCCCC)CCCN1C(=O)CNC1=O [Compound 174, Heptadecan-9-yl 8-((3-(2,5-dioxoimidazolidin-1-yl)propyl)(8-(nonyloxy)-8-oxooctyl)amino)octanoate] | – | – | – |
| – | – | 76.8 | – | CCCCCCCCC(CCCCCCCC)OC(=O)CCCCCCCN(CCO)CCCCCC(=O)OC1CCC(CCCCC)CC1 (stereo not shown) [Compound 68, Heptadecan-9-yl 8-((2-hydroxyethyl)(6-oxo-6-((4-pentylcyclohexyl)oxy)hexyl)amino)octanoate] | 8.42E+09 | 3.98E+07 | 6.69E+07 |
| – | – | 76.8 | 77.3 | CCCCCCCCC(CC)OC(=O)CCCN(CCO)CCCCCCCC(=O)OC(CCCCCCCC)CCCCCCCC (stereo not shown) [Compound 72, Heptadecan-9-yl 8-((2-hydroxyethyl)(4-oxo-4-(undecan-3-yloxy)butyl)amino)octanoate] | 7.97E+08 | 1.05E+07 | 6.40E+06 |
| – | – | 107.1 | – | CCCCCCCCC(C)OC(=O)CCCCCCCN(CCO)CCCCCCCC(=O)N(CCCCCCCC)CCCCCCCC (stereo not shown) [Compound 130, Decan-2-yl 8-((8-(dioctylamino)-8-oxooctyl)(2-hydroxyethyl)amino)octanoate] | 8.17E+09 | 5.88E+07 | 1.35E+09 |
| – | – | 73.7 | – | CCCCCCCCC(C)OC(=O)CCCN(CCO)CCCCCCCC(=O)OC(CCCCCCCC)CCCCCCCC (stereo not shown) [Compound 70, Heptadecan-9-yl 8-((4-(decan-2-yloxy)-4-oxobutyl)(2-hydroxyethyl)amino)octanoate] | 8.55E+08 | 6.32E+06 | 2.06E+06 |
